This assay has as its target RaaR (RSp0912) (Ralstonia pseudosolanacearum, UniProt Q8XRE2). The assay can be described thus: biochemical.

The text below walks through data of article PMC9176790 (PLoS Pathogens, 2022).

Molecules are shown by their SMILES.

Sequence of RaaR (RSp0912) (Q8XRE2 1-313 limits assumed): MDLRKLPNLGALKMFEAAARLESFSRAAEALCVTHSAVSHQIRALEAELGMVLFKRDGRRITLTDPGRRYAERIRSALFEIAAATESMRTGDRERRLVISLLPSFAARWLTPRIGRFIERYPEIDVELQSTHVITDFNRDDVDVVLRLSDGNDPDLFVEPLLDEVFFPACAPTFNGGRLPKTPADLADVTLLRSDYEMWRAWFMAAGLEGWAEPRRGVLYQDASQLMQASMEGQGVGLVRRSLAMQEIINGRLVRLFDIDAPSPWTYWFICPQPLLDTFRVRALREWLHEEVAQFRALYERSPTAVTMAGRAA

With `Nc1ccccc1C(=O)O` [anthranilic acid], the dissociation constant Kd is 3.63 µM.
